The values below come from patent publication US20240059740A1, “CYCLIC PEPTIDES AND USES THEREOF” (PRE[…] INC., priority 2020, published 2024).

Holding throughout (format): cell-based, human
Experiment [1] relates to MMP-2. In words: Gelatin zymography of conditioned media, MMP-2 production. The conditions noted are these: for metalloprotease production, MMP-2: compared to control containing no peptide. An excerpt:
To assess whether the peptide SEQ ID NO.1 impacted MMP-2, MMP-9 and uPA production Zymography was used.
Zymography is a technique for studying hydrolytic enzymes on the basis of substrate degradation. The in-gel zymography hydrolytic enzymes are separated by their molecular weights and detected by their ability to degrade a substrate. To detect the activity of MMP-2 and MMP-9 in various cell lines, conditioned media were collected in 3 independent experiments and analysed by gelatin zymography to quantify the level of gelatin digestion, which reflects MMP-2 and MMP-9 activity and production. Casein-Plasminogen zymography was conducted to determine the activity level of uPA in the conditioned medium from various cell lines. Active uPA converts plasminogen into plasmin which then digests casein, thus clear bands where digestion of casein have occurred indirectly represent uPA activity.
The effect of the peptides on matrix protease production was tested using in-gel zymography. If the substrate included in the gel is gelatin, the enzymes detected are gelatinases: MMP-2 and MMP-9 (the latter is often of low abundance). If the gel contains casein and plasminogen, the enzymes tested are urokinase plasminogen activators (uPA); uPA is a therapeutic target in GBM.
An equal amount of protein from each sample was mixed with 5 μL of Laemmli buffer (0.01% Bromophenol Blue (W/V), 5% SDS (W/V), 22% glycerol (V/V), 14% 0.5 M Tris pH 6.8 (V/V)) and loaded onto a 10% polyacrylamide gel co-polymerized with 1 mg/ml of gelatin, and electrophoresed at 120 V for 2 hours on ice. The gel was incubated in […] solution (Triton X-100 2.5% (V/V), 1 M Tris pH 7.5 5% (V/V), 0.5 M CaCl2 1% (W/V) at room temperature overnight on an orbital shaker. The gel was incubated in a second solution for 3 hours at 37° C. The gel was then stained with Coomassie blue solution (Coomassie blue 0.25%, methanol 45%, acetic acid 10%) and destained in methanol 25% (V/V), acetic acid 10% (V/V) destaining solution until clear bands against the dark background appeared around 72 kDa and 95 kDa, representing MMP-2 and MMP-9 activity, respectively. Clear bands around 50 kDa appeared against the dark background representing uPA activity. The gels were scanned, and uPA, MMP-2 and MMP-9 were quantified by densitometry using NIH Image J software.
SEQ ID NO.1 was compared to a control containing no peptide to evaluate whether the peptide can reduce the production of matrix proteinases. […] This could be confirmed using a MMP-9 quantification kit, and altered production by a transcriptional mechanism can be unveiled using qRT-PCR.

In experiment [2] the test system is uPA (PLAU) mRNA. The experiment in a line: Real time RT-PCR, uPA mRNA expression. An excerpt:
(§1) The real-time reverse transcription polymerase chain reaction (RT-PCR) uses fluorescent reporter molecules to monitor the production of amplification products during each cycle of the PCR reaction. This combines the nucleic acid amplification and detection steps into one homogeneous assay and use of appropriate chemistries and data analysis eliminates the need for Southern blotting or DNA sequencing for amplicon identification. Its simplicity, specificity and sensitivity, together with its potential for high throughput and the ongoing introduction of new chemistries, more reliable instrumentation and improved protocols, has made real-time RT-PCR the benchmark technology for the detection and/or comparison of RNA levels.’
(§2) In order to detect and quantify the expression of specific genes at mRNA level, real-time reverse transcriptase polymerase chain reaction (Real time RT-PCR) was performed. Total RNA of samples was isolated and purified using the PureLink® RNA Mini Kit (Life technologies). The concentration of total RNA was detected by NanoDrop 2000 Spectrophotometer (Thermo Scientific). The total RNA (2000 ng) was reverse transcribed using the High-Capacity cDNA Reverse Transcription Kit (Applied Biosystems™).
(§3) The primers of target genes were TaqMan™ Gene Expression Assay for human PLAU (Hs01547054_m1), MMP-2 (Hs01548727_m1), MMP-9 (Hs00957562_m1), Snail-1 (Hs00195591_m1), Snail-2 (Hs00161904_m1), N-cadherin (Hs00983056_m1) and Twist (Hs01675818_s1). Relative quantification was done by reference to 18S ribosomal RNA (18S rRNA) and analysed using the comparative critical threshold (Ct) method
(§4) The mRNA expression of MMPs was measured using qRT-PCR. This was tested three independent times; the results are shown in Tables 9, 10 and 11 for U251, U87 cells and O81024 cells respectively. Results are reported as percent of the control cells (no treatment). Both MMP-2 and uPA were decreased in U251 by SEQ ID NO.1.

Experiment [3] deals with MMP-2 mRNA. In words: Real time RT-PCR, MMP-2 mRNA expression.
Text: as §1, §2, §3, §4
In general terms: In qPCR the cycle at which signal appears reflects the starting amount.

[4] abbreviates: 081024 cells, baseline expression level = 1.
[5] abbreviates: U87 cells, baseline expression level = 1.

Each structure is given as a SMILES string. Residues, ends and D or L forms follow the SMILES beside them.

In the case of `CC(C)C[C@@H]1NC(=O)[C@H](C)NC(=O)[C@@H](NC(=O)[C@@H]2CCCN2C(=O)[C@@H](N)CC(C)C)CSSC(C)(C)CNC(=O)CC[C@@H](C(=O)N[C@@H](CCCNC(=N)N)C(N)=O)NC(=O)[C@H](CC(=O)O)NC(=O)[C@H](CC(N)=O)NC1=O` [SEQ ID NO: 1, Leu-Pro-c(SSA*-Ala-Leu-Asn-Asp-Glu)-Arg-NH2] (HELM PEPTIDE1{L.P.C.A.L.N.D.E.R.[am]}|CHEM1{[CC(C)(CN[*:2])S[*:1]]}$PEPTIDE1,CHEM1,3:R3-1:R1|PEPTIDE1,CHEM1,8:R3-1:R2$$$V2.0; N-terminus assumed), the “metalloprotease production, MMP-2” value in experiment [1] (081024 cells) was 106.4; in experiment [1] (U87 cells), 102.1; in experiment [1] (U251 cells), 110.2. Further, the “production of MMP-2 (overall, in words)” value in experiment [1] (overall, all cell lines) was “did not decrease”. In addition, the “mRNA expression, uPA” value is on record as 0.85 in experiment [2] (setting [4]); 1.19 in experiment [2] (setting [5]); 0.63 in experiment [2] (U251 cells, relative to control (no treatment), 18S rRNA reference, listed as SEQ ID NO. 1); “decreased” in experiment [2] (U251 cells, relative to control (no treatment), 18S rRNA reference, listed as SEQ ID NO.1). Further, the “mRNA expression, MMP-2” value in experiment [3] (setting [4]) is reported as 0.91; in experiment [3] (setting [5]), 0.84; in experiment [3] (U251 cells, relative to control (no treatment), listed as SEQ ID NO. 1), 0.72; in experiment [3] (U251 cells, relative to control (no treatment), listed as SEQ ID NO.1), “decreased”.
